Data taken from paper PMC4991342 (Virulence, 2016).

Key:
[1] = system: acute urinary tract infections; conditions: 70 patients with acute urinary tract infections; no details published; cited from earlier work
[2] = biological target: recombinant P. falciparum DXP reductoisomerase; conditions: read-out: IC50 for recombinant P. falciparum DXP reductoisomerase; cited from earlier work
P. falciparum malaria = conditions: oral monotherapy; clinical phase II; cited from earlier work
[3] = system: mouse lymphoma L5178Y/TK^+/− cells (clone 3.7.2C); experiment: In vitro mammalian cell gene mutation test; type: cell-based; conditions: 4 h without S9-mix

SMILES: O=CN(O)CCCP(=O)(O)O [fosmidomycin]
- antibacterial efficacy [1]: strong antibacterial efficacy
- IC50 [2]: 32 nM
- recrudescence (P. falciparum malaria): high rate of recrudescent infections

SMILES: COS(C)(=O)=O [MMS, methyl methanesulfonate]
- MF (mutant frequency) ([3]; MMS 10 µg/ml (positive control), relevant increase): 475.5 × 10^−6
- mean MF compared to the negative controls ([3]; MMS 10 µg/ml): 626%
